{"source": "paper PMC10591057", "about": "(Cell Reports Medicine, 2023)", "tested_on": "CNV lesions", "assay": "NHP laser-induced CNV, fluorescein angiography lesion grading", "type": "in vivo, Chlorocebus sabaeus", "conditions": "single ITV 1 mg Aflibercept", "data": [{"substance": "aflibercept: current standard of care anti-VEGF, single ITV administration of 1 mg", "values": [{"measurement": "incidence of grade IV lesions, Myr-EBIN vs aflibercept groups", "result": "no significant difference"}]}]}
